We go through 3 compounds from patent publication US20240076272A1, “Activators of Heme Regulated Inhibitor Kinase (HRI)” (The Brigham and Women`s Hospital, Inc., priority 2019, published 2024).

For one data set, the system named is cyclin D1. Briefly: Western blot, cyclin D1 expression in CRL-2813 cells. The data set is classed as cell-based, human. Particulars: 5 μM, 8 hours, Western blot (FIG. 2B). Here is the method: (§1) FIGS. 2A-2B show HRI activators of the present application induce eIF2α phosphorylation and modify its downstream effectors. In FIG. 2A, CRL-2813 cells were treated with 5 μM of each compound for 2 hours, cell lysates were probed with phosphorylated (P-eIF2α) and total eIF2α (T-eIF2α) and β-actin specific antibodies. In FIG. 2B, CRL-2813 cells were treated with 5 μM HRI activators for 8 hours and lysates were immunoblotted with antibodies against CHOP, p27^KiPl, cyclin D1 and β-actin.
(§2) Cells cultured under recommended media conditions were plated and maintained in serum-containing media without antibiotics in 14-cm plates (Nunc) until reaching 70% confluence. Cells were then treated with compounds for 6 h, washed with cold PBS once, and lysed with M-PER Mammalian Protein Extraction Reagent (Pierce) for 30 min on ice. The cell lysates were centrifuged at 12,000 RPM for 15 min and the supernatants were transferred to fresh tubes and the concentrations were determined by BCA (Pierce). Equal amount of proteins were mixed with Laemmli Sample Buffer, heated at 100° C. for 5 min, separated by SDS-PAGE, and probed with anti-phosphoserine-51-eIF2α (Phos-eIF2α), anti-total eIF2α-specific antibodies (Total-eIF2α) (Biosource International, Hopkinton, MA), anti-CHOP, anti-cyclin D1 or anti-actin (Santa Cruz Biotechnology, CA) using procedures substantially similar to previous reports (see e.g., Aktas et al, Mol. Cell. Biol. 17 (1997) 3850-3857).
(§3) Endogenous eIF2α is the best-known substrate of HRI and the upstream regulator of the eIF2·GTP·Met-tRNAi ternary complex abundance, while CHOP expression is a downstream effector of eIF2α phosphorylation. For assessing eIF2α phosphorylation, blotted cell lysates were treated for two hours with vehicle or selected compounds using antibodies specific for the total-eIF2α and the phosphorylated-eIF2α (T-eIF2α and [PhoS^51]-eIF2α), respectively (see e.g., Aktas et al, J. Nutr. 134 (2004) 2487S-2491S) (see FIG. 2A).
For orientation: A western blot detects proteins with antibodies after separation by electrophoresis.

Data set [1] relates to human melanoma CRL-2813 cells. In words: sulforhodamine B (SRB) cell proliferation assay. The class given is cell-based. Conditions: Homo sapiens, CRL2813, 120 h, 5 days, read-out: IC50 (concentration that inhibits growth of human melanoma CRL-2813 cells by 50%). On the procedure: Cells were seeded in 96-well plates and maintained for 5 days in the presence of 0.5 μM to 20 μM of individual compound, and cell proliferation was measured by the sulforhodamine B (SRB) assay according to previous reports (see e.g., Palakurthi et al, Cancer Res. 60 (2000) 2919-2925): briefly, at the end of a 5-day treatment, cells were fixed in 10% cold trichloroacetic acid. Cell number was estimated by measuring the remaining bound dye of sulforhodamine B after washing. The percentage of growth was calculated by using the equation: 100×[(T-T0)/(C-T0)], where T and C represent the absorbance in treated and control cultures at Day 5, and T0 at time zero, respectively. If T was less than T0, cell death had occurred and was calculated from 100×[(T-T0)/T0].
All 4-CF3-ΦOcAlkΦUs were tested in the sulforhodamine B (SRB) cell proliferation assay to establish the concentrations that inhibit human melanoma CRL-2813 cells growth by 50% (IC50) (see Table 1). This activity reflects a combined effect of membrane permeability and overall anti-proliferative effects that include on target and off-target effects.

Another data set deals with CHOP. In words: Western blot, CHOP expression in CRL-2813 cells. The class given is cell-based, human. Particulars: 5 μM, 8 hours, Western blot (FIG. 2B). On the procedure: as §1, §2, §3
Data set [2] relates to eIF2α phosphorylation (ATF-4 5′UTR luciferase reporter). Briefly: surrogate eIF2α phosphorylation dual-luciferase reporter (DLR) assay. Particulars: for fold induction at 1.25 µM / fold induction at 5 µM: F/R luciferase ratio normalized to DMSO wells (F/R=1); for fold induction at 1.25 µM: read-out: Fold stimulation of ATF-4 Surrogate eIF2α @ 1.25 μM; for fold induction at 5 µM: read-out: Fold stimulation of ATF-4 Surrogate eIF2α @ 5 μM. The data set is classed as cell-based. From the text:
The dual luciferase expression vector and other plasmids used in the Examples provided herein have been previously reported (see e.g., Ziegeler et al, J. Biol. Chem. 285 (2010) 15408-15419). The dual luciferase surrogate eIF2α phosphorylation assay, has also been previously reported (see e.g., Chen et al, Nat. Chem. Biol. 7 (2011) 610-616). Briefly, a dual Renilla and Firefly luciferase mammalian reporter vector that transcribes both mRNAs from the same bi-directional enhancer/promoter complex was utilized for generation of surrogate eIF2α phosphorylation assay (see e.g., Ziegeler et al, J. Biol. Chem. 285 (2010) 15408-15419). Both mRNAs contained the same 90 nucleotide plasmid derived 5′UTR. In addition, 5′UTR of the Firefly luciferase open reading frame was fused in-frame to the 267 nucleotide ATF-4 5′UTR (see e.g., Chen et al, Nat. Chem. Biol. 7 (2011) 610-616).
Cells expressing firefly and renilla luciferases were assayed with a dual glow luciferase assay kit, per manufacturer's instruction (Promega Inc., Madison, WI). The data calculations were carried out as the ratio of firefly to renilla luciferase signal (see e.g., Ziegeler et al, J. Biol. Chem. 285 (2010) 15408-15419). Dose-response curves were obtained, and triplicate data points were fitted to the logistical sigmoidal model using nonlinear least-squares regression performed in GraphPad Prism 6.
All newly synthesized N,N′-disubstituted ureas were initially evaluated by testing in the surrogate eIF2α phosphorylation dual-luciferase reporter (DLR) assay (see e.g., Chen et al, Nat. Chem. Biol. 7 (2011) 610-616; and Ziegeler et al, J. Biol. Chem. 285 (2010) 15408-15419). Briefly, this assay takes advantage of the fact that activated HRI phosphorylates eIF2α which inhibits eIF2 guanine nucleotide exchange factor eIF2B, responsible for exchanging the GDP in the eIF2·GDP complex for GTP. The reduction in the recycling of eIF2·GDP into eIF2·GTP interferes with the formation of eIF2·GTP·Met-tRNAi ternary complex. […] These include mRNA coding for activating transcription factor 4 (ATF-4) (see e.g., Aktas et al, Oncotarget, 4 (2013) 1606-1617; Aktas et al, Oncotarget, 6 (2015) 6902-6914; and Aktas et al, Proc. Natl. Acad. Sci. U.S.A. 95 (1998) 8280-8285).
In the present assay, firefly (F) luciferase mRNA was fused to the 5′UTR of ATF-4 mRNA that had multiple uORFs, while renilla (R) luciferase mRNA was fused to a 5′UTR lacking any uORFs. Agents that reduce the amount of the eIF2·GTP·Met-tRNAi ternary complex, such as N,N′-disubstituted ureas that activate HRI, increase F luciferase expression while reducing the R luciferase expression, resulting in an increased F/R luciferase ratio. The ureas of the present application were tested at 10 μM, 5 μM, 2.5 μM, and 1.25 μM concentrations in 96-well assay plates (see e.g., Chen et al, Nat. Chem. Biol. 7 (2011) 610-616; and Bai et al, ChemBioChem, 14 (2013) 1255-1262). The activity scores as the F/R ratios were calculated for every compound-treated well and normalized to F/R ratio of vehicle-treated (DMSO) wells in the same plate, arbitrarily set at 1 (F/R=1). Data obtained in the surrogate dual-luciferase eIF2α phosphorylation (DLR) assay for the series of 1-phenyl-3/4-(4-trifluorometyl) phenoxy-cycloalkyl)ureas (4-CF3-ΦcAlkΦUs) and 1-phenyl-3-(5-(4-(trifluoromethyl) phenoxy)pyrimidin-2-yl)ureas (4-CF3-ΦOPyΦUs) described herein are shown in Tables 1-2.
Background: In a reporter assay the amount or activity of a reporter protein is the signal.

The test system of another data set is endogenous eIF2α. Briefly: Western blot, phosphorylation of endogenous eIF2α in CRL-2813 cells. The data set is classed as cell-based, human. Conditions: 5 μM, 2 hours, Western blot (FIG. 2A). Here is the method:
as §1
Cells cultured under recommended media conditions were plated and maintained in serum-containing media without antibiotics in 14-cm plates (Nunc) until reaching 70% confluence. Cells were then treated with compounds for 6 h, washed with cold PBS once, and lysed with M-PER Mammalian Protein Extraction Reagent (Pierce) for 30 min on ice. The cell lysates were centrifuged at 12,000 RPM for 15 min and the supernatants were transferred to fresh tubes and the concentrations were determined by BCA (Pierce). […]

For orientation: melting point means the temperature of the solid-liquid transition. The compound `N#Cc1ccc(F)c(NC(=O)N[C@H]2CC[C@H](Oc3ccc(C(F)(F)F)cc3)CC2)c1` [Compound 6-VI, 1-(5-Cyano-2-fluorophenyl)-3-(trans-4-(4-(trifluoromethyl)phenoxy)cyclohexyl)urea] had a melting point of 234.6 to 237 °C. For the same compound, the “expression of cyclin D1 relative to DMSO” value in the data set on cyclin D1 is “did not inhibit the expression of cyclin D1”. For the same compound, the IC50 in data set [1] is above 10 µM. Also, the “expression of CHOP relative to DMSO” value in the data set on CHOP was “did not increase expression of CHOP”. Moreover, in data set [2], the “activity in the DLR assay (in words)” value was “inactive”, the fold induction at 1.25 µM worked out at 1 ± 0.3 and the fold induction at 5 µM stood at 1.5 ± 0.5. In the data set with endogenous eIF2α, the “phosphorylation of endogenous eIF2α” value is given as “least active”.
As for `Cc1ccc(F)cc1NC(=O)N[C@H]1CC[C@H](Oc2ccc(C(F)(F)F)cc2)CC1` [Compound 7-VI, 1-(5-Fluoro-2-methylphenyl)-3-(trans-4-(4-(trifluoromethyl)phenoxy)cyclohexyl)urea], the melting point was 238.2 to 239.8 °C. Moreover, the “expression of cyclin D1 relative to DMSO” value in the data set on cyclin D1 is “decreased the expression of cyclin D1”. Also, in data set [1], the IC50 is 5.3 ± 1.8 µM. Besides, in the data set with CHOP, the “expression of CHOP relative to DMSO” value is recorded as “increased the expression of CHOP”. In data set [2], the fold induction at 1.25 µM amounted to 1.8 ± 0.8 and the fold induction at 5 µM worked out at 1.5 ± 0.4.
Turning to `O=C(Nc1cccc(F)c1F)N[C@H]1CC[C@H](Oc2ccc(C(F)(F)F)cc2)CC1` [Compound 11-VI, 1-(2,3-Difluorophenyl)-3-(trans-4-(4-(trifluoromethyl)phenoxy)cyclohexyl)urea], the melting point fell in the range of 227.3 to 229.9 °C. In addition, the “expression of cyclin D1 relative to DMSO” value with cyclin D1 is listed as “decreased the expression of cyclin D1”. For the same compound, the IC50 in data set [1] came to 1.6 ± 2 µM. Further, in the data set with CHOP, the “expression of CHOP relative to DMSO” value is listed as “increased the expression of CHOP”. Besides, in data set [2], the fold induction at 1.25 µM turned out to be 4.7 ± 1 and the fold induction at 5 µM worked out at 9.9 ± 1.3.
